Data reported in patent US20060276440A1, “Treatment of inflammatory disorders” (priority 2005, published 2006).
“Also recorded” adds a separate entry of the source. Like-named read-outs stand apart in the source and are kept apart here.

Key:
Format in all cases: cell-based, human
MMP-13 = experiment: IL-1/OSM-stimulated pro-MMP-13 production in SW-1353 cells (ELISA); details: for IC50: Homo sapiens; for effect on OSM/IL-1-mediated pro-MMP-13 production: up to 1.5 μM
Description: To test the compounds identified in the preliminary reporter (luciferase) activity […]® line 4A1 screen for inhibition of OSM signaling in a more physiologically relevant environment, a human cell line involved in an inflammatory disease was adapted. The human cartilage cell line SW-1353 was selected.
In the human cartilage cell line SW-1353, while IL-1 is believed to activate expression of collagenases to a small degree and OSM is believed to have no effect on collagenase expression, a combination of IL-1 and OSM is believed to lead to a synergistic activation of collagenases to much higher levels (S. Cowell et al., Biochem J 331 (Pt 2), 453 (Apr. 15, 1998). Regulation of MMP-13 in SW-1353 cells is, therefore, believed to provide a biomarker which can be used to monitor IL-1/OSM-mediated signal transduction events in secondary assays.
(§1) The same supernatants of culture media used in the primary screen were assayed for IL-1/OSM-stimulated pro-MMP-13 production and MMP-2 production by enzyme-linked immunosorbent assay (ELISA).
(§2) For matrix metalloproteinase (MMP) measures, SW1353 cells were grown to confluence in 24 well plates, washed in DMEM (with Ham's F12) and placed in 500 ul of serum free DMEM/F-12 with 0.2% lactalbumin hydrosylate with and without OsM/IL-1. After 24 hrs, supernatants were collected and the amounts of proMMP13, totalMMP2, and proMMP1 were measured using Quantikine® ELISA kit for human MMPs (R & D systems, Minneapolis, Minn.). All MMP measures were normalized to viable cell numbers based on a tetrazolium (MTS) colorimetric measure (Promega, Madison, Wis.).

4A1 reporter activity = experiment: Activation of 4A1 Sentinel luciferase reporter by cytokines; details: for stimulatory effect on 4A1 reporter activity: other gp-130-binding cytokine family members, data not shown; for maximum activation of 4A1 luciferase reporter over background / EC50, induced reporter activity of 4A1: 4A1 cells; for EC50, induced reporter activity of 4A1: IL-1
Procedure: (§3) Reporter activities of Sentinel® clones were measured using the Steady-Glo® Luciferase assay system (Promega, Madison, Wis.), according to the manufacturer's instructions, and were normalized to cell numbers based on nucleic acid quantification (CyQuant® cell proliferations assay, Molecular Probes/Invitrogen, Carlsbad, Calif.). In order to identify potential anti-inflammatory compounds, the OSM-responding Sentinel® clone 4A1 was used for a library screen of approximately 1800 compounds.
Sentinel lines were developed by utilizing promoter trapping technology in combination with positive and negative selections to efficiently deliver reporter genes into endogenously regulated genetic sites. Using this approach, a Sentinel cell line, 4A1, in A549 lung carcinoma cells that responded specifically to OSM and IL-1 stimulation among a panel of cytokines and active compounds was established (FIG. 9A).
OSM dose-dependently activated the luciferase reporter activity of 4A1 5-7 folds over background with EC50 of approximately 50 ng/ml (FIGS. 9A and B). […] When OSM and IL-1 were added together to 4A1 cells, the reporter activity appeared to be moderately more than the sum of individual activities obtained when OSM and IL-1 added separately (FIG. 9D). However, the luciferase activity of 4A1 appeared to respond predominantly to OSM, because OSM typically produced 5-7-fold maximum activation whereas IL-1 only produced 2-fold maximum activation (FIGS. 9B and C).

OSM signaling = experiment: […] 4A1 cell line (A549) OSM-stimulated luciferase reporter assay; details: for IC50: Homo sapiens, A549; for effect on OSM-mediated reporter activity: up to 1.5 μM
Procedure: Cell line 4A1 was established in A549 cells (a human lung cancer cell line) using BV32, a vector that carries both the luciferase and GFP reporters. Assay development was performed to optimize the conditions of the OSM-response in the 4A1 […]® line.
as §3

MMP-2 = MMP-2 production in SW1353 cells (ELISA, control); details: SW-1353; FIG. 5
Procedure: MMP-2 production can be used as control for the potential side-effects of compounds. This is because MMP-2 levels are not believed to change in response to IL-1/OSM.
as §1, §2
Multiple control assays were performed to investigate the selectivity of CA4 action. Matrix metalloproteinase-2 (MMP-2) production in SW1353 cells was tested. Mutation of MMP-2 causes a multicentric osteolysis and arthritis syndrome (Martignetti et al., Nat Genet 28, 261-265 (2001) the entire contents of which are incorporated herein by reference), and theoretically its expression should not be affected in treating RA. CA4 at approximately 110 nM had no effect on production of MMP-2 (FIG. 12E). An A549 Sentinel line that responded to TGF-β was then tested.

[1] = 4A1 cells, mean (Examples 7, 10), read-out: IC50 values by luciferase reporter activity (OSM-stimulated)
[2] = SW1353 cells, mean (Examples 8, 10), read-out: IC50 values by pro-MMP-13 (OSM/IL-1-mediated production)
[3] = 4A1 cell line, primary screen (Table 1), read-out: IC50, inhibition of OSM-stimulated (luciferase) reporter activity

## COc1cc2c(c(OC)c1OC)-c1ccc(OC)c(=O)cc1[C@@H](NC(C)=O)CC2 (atropisomer, axis not shown) [Colchicine (4), colchicine]
MMP-13; at 4 μM, SW-1353
  reduction of signal (MMP-13 secondary assay): approximately 83%

## LIF: member of the gp-130-binding cytokine family
4A1 reporter activity
  stimulatory effect on 4A1 reporter activity: no stimulatory effect

## COC(=O)Nc1nc2ccc(C(=O)c3cccs3)cc2[nH]1 [Nocodazole, reference compound]
OSM signaling; [1]
  IC50: 0.104 µM
MMP-13; [2]
  IC50: > 0.4 µM

## COC(=O)Nc1nc2cc(Sc3ccccc3)ccc2[nH]1 [Fenbendazole (6), [5-(phenylthio)-1H-benzimidazol-2-yl]carbamic acid methyl ester]
OSM signaling; [3]
  IC50: 0.8 µM

## O=c1oc2ccccc2c(O)c1Cc1c(O)c2ccccc2oc1=O [Dicumarol (11), 4-hydroxy-3-((4-hydroxy-2-oxo-2H-chromen-3-yl)methyl)-2H-chromen-2-one]
OSM signaling; [3]
  IC50: 3.7 µM

## CC[C@]1(O)C[C@@H]2CN(CCc3c([nH]c4ccccc34)[C@@](C(=O)OC)(c3cc4c(cc3OC)N(C)[C@H]3[C@@](O)(C(=O)OC)[C@H](OC(C)=O)[C@]5(CC)C=CCN6CC[C@]43[C@@H]65)C2)C1 [Vinbalstine, vinblastine, reference compound]
OSM signaling; [1]
  IC50: 0.0034 ± 0.0006 µM
MMP-13; [2]
  IC50: 0.0116 ± 0.0052 µM

## COc1cc([C@@H]2c3cc4c(cc3[C@H](O)[C@H]3COC(=O)[C@H]23)OCO4)cc(OC)c1OC [Podophyllotoxin, reference compound]
OSM signaling; [1]
  IC50: 0.277 µM
MMP-13; [2]
  IC50: 0.0549 µM

## IL-1β: cytokine from Peprotech used to stimulate cells
4A1 reporter activity
  maximum activation of 4A1 luciferase reporter over background: 2 fold
  EC50, induced reporter activity of 4A1: 0.028 ± 0.01 ng/mL
4A1 reporter activity; listed as IL-1
  EC50, induced reporter activity of 4A1: 0.028 ng/mL

## Cc1ccc(C(=O)Cn2c3c(sc2=N)CCCC3)cc1 [Pifithrine-alpha (12), 2-(2-imino-4,5,6,7-tetrahydrobenzothiazol-3-yl)-1-p-tolylethanone]
MMP-13; SW1353, SW-1353, IL-1/OSM-stimulated, secondary screen (Example 2), read-out: IC50, inhibition of MMP-13 (pro-MMP-13) production
  IC50: 32 µM
MMP-2
  inhibitory effect on MMP-13 expression compared to MMP-2 expression: greater inhibitory effects on MMP-13 expression compared to MMP-2 expression; also recorded: preferentially inhibit MMP-13 expression compared to MMP-2 expression

## COc1cccc(-c2cc(=O)c3ccccc3o2)c1N [PD98059, reference compound]
OSM signaling; 4A1 cells, FIG. 10A-E
  effect of pathway inhibitors on OSM-stimulated reporter activity: inhibited the reporter activity in a dose-dependent manner

## cytochalacin D [reference compound]
OSM signaling; 4A1 cells, data not shown
  effect on OSM-mediated reporter activity: did not have effect
MMP-13; SW1353 cells, data not shown
  effect on OSM/IL-1-mediated pro-MMP-13 production: did not have effect

## C=C1C(=O)[C@@]23[C@H](O)C[C@@H]4C(C)(C)CC[C@H](O)[C@@]4(CO)[C@@H]2CC[C@@H]1[C@H]3O [Kamebakaurin, reference compound]
OSM signaling; 4A1 cells, FIG. 10A-E
  effect of pathway inhibitors on OSM-stimulated reporter activity: inhibited the reporter activity in a dose-dependent manner

## IL-6: member of the gp-130-binding cytokine family
4A1 reporter activity
  stimulatory effect on 4A1 reporter activity: no stimulatory effect

## COc1c(C)c2c(c(O)c1C/C=C(\C)CCC(=O)O)C(=O)OC2 [Mycophenolic acid (3), 6-(4-Hydroxy-6-methoxy-7-methyl-3-oxo-5-phthalanyl)-4-methyl-4-hexenoic acid]
OSM signaling; [3]
  IC50: 0.02 µM

## Clc1ccc2ncnc(NCc3ccc4c(c3)OCO4)c2c1 [MBCQ (5), 4-[[3,4-(Methylenedioxy)benzyl]amino]-6-chloroquinazoline]
OSM signaling; [3]
  IC50: 0.4 µM

## cytochalacin B [reference compound]
OSM signaling; 4A1 cells, data not shown
  effect on OSM-mediated reporter activity: did not have effect
MMP-13; SW1353 cells, data not shown
  effect on OSM/IL-1-mediated pro-MMP-13 production: did not have effect

## CC1CCC2(C)CCC3C(=CCC4(C)C3CCC3C(C)(C(=O)O)C(C)CCC34C)C2C1C (stereo not drawn) [β-boswellic acid (7), 1,2,3,4,4a, 5,6,6a, 6b, 7,8,8a, 9, 10, 11, 12, 12a, 14, 14a, 14b-icosahydro-3,4,8a,11,12,14a,14b-heptamethylpicene-4-carboxylic acid]
OSM signaling; [3]
  IC50: 1.9 µM

## C[S+]([O-])c1ccc(-c2nc(-c3ccncc3)c(-c3ccc(F)cc3)[nH]2)cc1 (stereo not shown) [SB203580, reference compound]
OSM signaling
  effect of pathway inhibitors on OSM-stimulated reporter activity: inhibited the reporter activity in a dose-dependent manner

## OSM: proinflammatory cytokine, 28-kD glycoprotein of the gp130-binding cytokine family
4A1 reporter activity
  maximum activation of 4A1 luciferase reporter over background: 5-7 fold

## JAK inhibitor I [reference compound]
OSM signaling; 4A1 cells, FIG. 10A-E
  effect of pathway inhibitors on OSM-stimulated reporter activity: inhibited the reporter activity in a dose-dependent manner

## C/C=C(/C(=C/C)c1ccc(O)cc1)c1ccc(O)cc1 [Dienestrol (10), 4-((2E,4E)-4-(4-hydroxyphenyl)hexa-2,4-dien-3-yl)phenol]
OSM signaling; [3]
  IC50: 3.5 µM

## CC(=O)O[C@H]1C(=O)[C@@]2(C)[C@H]([C@H](OC(=O)c3ccccc3)[C@]3(O)C[C@H](OC(=O)[C@H](O)[C@@H](NC(=O)c4ccccc4)c4ccccc4)C(C)=C1C3(C)C)[C@]1(OC(C)=O)CO[C@@H]1C[C@@H]2O [Taxol, reference compound]
OSM signaling; under 200 nM, data not shown
  effect on 4A1 reporter activity: dose-dependently inhibited
MMP-13; data not shown
  effect on MMP-13 production: no effect

B1: IL-11: member of the gp-130-binding cytokine family (protein, UniProt P20809 22-199, looked up)
Interleukin-11: PGPPPGPPRVSPDPRAELDSTVLLTRSLLADTRQLAAQLRDKFPADGDHNLDSLPTLAMSAGALGALQLPGVLTRLRADLLSYLRHVQWLRRAGGSSLKTLEPELGTLQARLDRLLRRLQLLMSRLALPQPPPDPPAPPLAPPSSAWGGIRAAHAILGGLHLTLDWAVRGLLLLKTRL
4A1 reporter activity
  stimulatory effect on 4A1 reporter activity: no stimulatory effect

B2: CT-1: member of the gp-130-binding cytokine family (protein, UniProt Q16619 1-201, looked up)
Cardiotrophin-1: MSRREGSLEDPQTDSSVSLLPHLEAKIRQTHSLAHLLTKYAEQLLQEYVQLQGDPFGLPSFSPPRLPVAGLSAPAPSHAGLPVHERLRLDAAALAALPPLLDAVCRRQAELNPRAPRLLRRLEDAARQARALGAAVEALLAALGAANRGPRAEPPAATASAASATGVFPAKVLGLRVCGLYREWLSRTEGDLGQLLPGGSA
4A1 reporter activity
  stimulatory effect on 4A1 reporter activity: no stimulatory effect

B3: CNTF: member of the gp-130-binding cytokine family (protein, UniProt P26441 1-200, looked up)
Ciliary neurotrophic factor: MAFTEHSPLTPHRRDLCSRSIWLARKIRSDLTALTESYVKHQGLNKNINLDSADGMPVASTDQWSELTEAERLQENLQAYRTFHVLLARLLEDQQVHFTPTEGDFHQAIHTLLLQVAAFAYQIEELMILLEYKIPRNEADGMPINVGDGGLFEKKLWGLKVLQELSQWTVRSIHDLRFISSHQTGIPARGSHYIANNKKM
4A1 reporter activity
  stimulatory effect on 4A1 reporter activity: no stimulatory effect
